{"source": "patent US10023582B2", "about": "“6-aryl amino pyridone formamide compound crystal and preparation method therefor” (Chia Tai Tianqing Pharmaceutical Group Co., Ltd., priority 2014, dated 2018)", "test": "Stability test (influencing factors: high temperature/humidity and strong light irradiation), total impurities", "type": "physicochemical", "procedure": "A suitable amount of the crystal of the compound of formula (I) prepared in Example 4 was accurately weighed, and methanol was then added thereto to dissolve the crystal. It was diluted quantitatively to obtain a solution containing about 50 μg of the compound per 1 ml of the solution. 10 μl of the solution was accurately measured and injected into the liquid chromatograph, and the chromatogram was recorded. In addition, a suitable amount of the compound of formula (I) was weighed as a control, and measured by the same method as described in the above. The purity was calculated through external standard method based on peak areas.\nReferring to the test method of influencing factors for raw materials described in the Chinese Pharmacopoeia, 2010 edition, Part II, Appendix XIX C, a high-temperature experiment (40° C.±2° C. and a relative humidity of 75%±5%) and strong light irradiation experiment (4500l×±500l×) were conducted on the crystal of the compound of formula (I) prepared in Example 4 for 10 days, respectively. Samples were taken on day 0 and day 10 to measure a total amount of impurities and determine the stability.", "data": [{"smiles": "Cn1c(Nc2ccc(I)cc2Cl)c(C(=O)NOCCO)c2occc2c1=O", "note": "[6-(2-chloro-4-iodophenylamino)-N-(2-hydroxylethyoxyl)-5-methyl-4-oxo-4,5-dihydrofuro[3,2-c]pyridine-7-carboxamide]", "values": [{"measurement": "Total amount of impurities (%)", "setting": "At 40° C., 10 days (40° C.±2° C., relative humidity 75%±5%)", "result": 0.60, "unit": "%"}, {"measurement": "Total amount of impurities (%)", "setting": "Day 0", "result": 0.57, "unit": "%"}, {"measurement": "Total amount of impurities (%)", "setting": "Irradiation for 10 days (strong light, 4500l×±500l×)", "result": 0.68, "unit": "%"}]}]}
